Target: aryl hydrocarbon receptor (AhR) (Homo sapiens, UniProt P35869)
Assay: EROD induction in Caco-2 cells (endogenous AhR), abolished by AhR antagonist
Assay type: cell-based

`Clc1cc2c(cc1Cl)Oc1cc(Cl)c(Cl)cc1O2` [2,3,7,8-TCDD, 2,3,7,8-tetrachlorodibenzo-p-dioxin] gave an EC50 of 102 pM.

Source: PMC12656239, “Aryl Hydrocarbon Receptor-Mediated Disruption of Intestinal Epithelial Barrier Integrity by Dioxin Isomers” (Toxics, 2025)
